Experimental data published in ChEMBL document CHEMBL1142847, “New orally active spiro 1,2,4-trioxanes with high antimalarial potency” (2005).

Key:
Format in all cases: functional
[1] = Number of Swiss mice (Mus musculus) alive in a batch of 5 infected with multidrug-resistant Plasmodium yoelii, on day 28 after intramuscular administration of 96 mg/kg/day dose
Rattus norvegicus [2] = assay: Number of Swiss mice (Mus musculus) alive in a batch of 5 infected with multidrug-resistant Plasmodium yoelii, on day 28 after oral administration of 24 mg/kg/day dose
Rattus norvegicus [3] = assay: Number of Swiss mice (Mus musculus) alive in a batch of 5 infected with multidrug-resistant Plasmodium yoelii, on day 28 after peroral administration of 48 mg/kg/day dose; conditions: route oral
Rattus norvegicus [4] = assay: Number of Swiss mice (Mus musculus) alive in a batch of 5 infected with multidrug-resistant Plasmodium yoelii, on day 28 after peroral administration of 96 mg/kg/day dose; conditions: route oral

C=C(c1ccccc1)C1COC2(CCC(=CC(=O)OCC)CC2)OO1 (stereo not drawn)
Activity [1]: 2 | Activity (Rattus norvegicus [2]): 0 | Activity (Rattus norvegicus [3]): 5 | Activity (Rattus norvegicus [4]): 5

C=C(c1ccc(-c2ccccc2)cc1)C1COC2(CCC(OC(=O)CCC(=O)O)CC2)OO1 (stereo not drawn)
Activity [1]: 0 | Activity (Rattus norvegicus [4]): 0

C=C(c1ccccc1)C1COC2(CCC(=C(C)C(=O)OCC)CC2)OO1 (stereo not drawn)
Activity [1]: 0 | Activity (Rattus norvegicus [4]): 0

C=C(c1ccc(-c2ccccc2)cc1)C1COC2(CCC(O)CC2)OO1 (stereo not drawn)
Activity [1]: 2 | Activity (Rattus norvegicus [4]): 0

C=C(c1ccccc1)C1COC2(CCC(O)(c3ccccc3)CC2)OO1 (stereo not drawn)
Activity [1]: 0 | Activity (Rattus norvegicus [4]): 0

C=C(c1ccccc1)C1COC2(CCC(C)(O)CC2)OO1 (stereo not drawn)
Activity [1]: 2 | Activity (Rattus norvegicus [4]): 0

C=C(c1ccc(-c2ccccc2)cc1)C1COC2(CCC(=CC(=O)OCC)CC2)OO1 (stereo not drawn)
Activity [1]: 0 | Activity (Rattus norvegicus [3]): 0 | Activity (Rattus norvegicus [4]): 5

C=C(c1ccccc1)C1COC2(CCC(OC(=O)CCC(=O)O)CC2)OO1 (stereo not drawn)
Activity [1]: 0 | Activity (Rattus norvegicus [4]): 0

C=C(c1ccc(-c2ccccc2)cc1)C1COC2(CCC(=C(C)C(=O)OCC)CC2)OO1 (stereo not drawn)
Activity [1]: 0 | Activity (Rattus norvegicus [3]): 0 | Activity (Rattus norvegicus [4]): 2

C=C(c1ccccc1)C1COC2(CCC(O)CC2)OO1 (stereo not drawn)
Activity [1]: 0 | Activity (Rattus norvegicus [4]): 0

C=C(c1ccccc1)C1COC2(CCC(O)(CC(=O)OCC)CC2)OO1 (stereo in doubt; form 1)
Activity [1]: 0 | Activity (Rattus norvegicus [4]): 0

C=C(c1ccc(-c2ccccc2)cc1)C1COC2(CCC(O)(CC(=O)OCC)CC2)OO1 (stereo in doubt; form 1)
Activity [1]: 0 | Activity (Rattus norvegicus [4]): 0
